These compounds were tested against T1, human GPR40 (Homo sapiens, UniProt O14842) (assay: Cell-based aequorin assay using human GPR40). Details: CHO cells transfected with GPR40 and aequorin expression vectors; aequorin luminescence; activation of human GPR40; read-out: Relative EC50.
T1 construct: expressed in transfected cells; host or cells: CHO cells
Method: A cell-based aequorin assay may be employed to characterize the modulatory activity of compounds on the GPR40 signaling pathway. In an exemplary assay, CHO cells are transfected in a 15 cm plated containing 14 million cells with 5 μg of GPR40 expression vector and 5 μg of Aequorin expression vector (Euroscreen) using Lipofectamine 2000 (Invitrogen). After 17-24 hours post-transfection, cells are washed with phosphate buffered saline (PBS) and detached from the tissue culture dish with 2 mL of trypsin (0.25%(w/v)). Trypsinization is halted with 28 mL of Hanks Buffered Salt Solution containing 20 mM Hepes (H/HBSS) and 0.01% fatty acid-free bovine serum albumin (BSA) or 0.625% fatty acid-free human serum albumin (HSA). Coelantrazine is added to 1 ug/mL and the cells are incubated for 2 hours at room temperature. Cells are gently mixed every 15 minutes. Compounds are dissolved in dimethyl sulfoxide for preparation of 10 mM stock solutions. Compounds are diluted in H/HBSS containing either 0.01% BSA or 0.625% HSA. Serial dilutions of the test compounds are prepared to determine dose response. Aequorin luminescence measurements are made using an EG&G Berthold 96-well luminometer and the response is measured over a 20 second interval after cells and compounds are mixed. The area-under-curve from 2-20 seconds is plotted to determine dose response. The EC50 (effective concentration to reach 50% maximal response) is determined from the dose response plot. Table 1 includes representative data (EC50 values) obtained for exemplary compounds of the invention for the relative activation of human GPR40. […] Therefore, in some embodiments, the invention provides any of the compounds listed in Table 1 individually or as members of a group and pharmaceutically acceptable salts, esters, solvates, tautomers, stereoisomers, and/or prodrugs thereof.

T1 sequence (O14842 whole entry): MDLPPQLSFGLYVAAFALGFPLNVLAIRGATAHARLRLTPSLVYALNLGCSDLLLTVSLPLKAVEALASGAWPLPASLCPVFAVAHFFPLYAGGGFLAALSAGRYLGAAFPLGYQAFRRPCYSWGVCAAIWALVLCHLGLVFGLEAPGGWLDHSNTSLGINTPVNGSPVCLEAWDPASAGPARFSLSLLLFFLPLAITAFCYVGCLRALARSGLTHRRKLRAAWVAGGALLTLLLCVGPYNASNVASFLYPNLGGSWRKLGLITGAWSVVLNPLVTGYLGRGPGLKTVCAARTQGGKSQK

Structure (SMILES)	EC50 [µM]
CC1CCc2cc(OCc3cccc(-c4ccc(C(F)(F)F)cc4)c3)ccc2C1CC(=O)O (mixture of isomers) [Example 22]	1 to 10
CCCCOc1ccc(C)cc1-c1ccc(COc2ccc3c(c2)CCC(C)C3CC(=O)O)cc1 (mixture of isomers) [Example 23]	1 to 10
Cc1ccc(-c2nc(C)c(COc3ccc4c(c3)CCC(C)C4CC(=O)O)s2)cc1 (mixture of isomers) [Example 24]	1 to 10
CCCCOc1ccc(C)cc1-c1ccc(COc2ccc3c(c2)CC(C)C3CC(=O)O)cc1 (mixture of isomers) [Example 25]	1 to 10
CC1Cc2cc(OCc3cccc(-c4ccc(C(F)(F)F)cc4)c3)ccc2C1CC(=O)O (mixture of isomers) [Example 26]	1 to 10
CCOc1ccccc1-c1ccc(COc2ccc3c(c2)CC(C)C3CC(=O)O)cc1 (mixture of isomers) [Example 27]	1 to 10
Cc1ccc(-c2nc(C)c(COc3ccc4c(c3)CC(C)C4CC(=O)O)s2)cc1 (mixture of isomers) [Example 28]	1 to 10
CCCCOc1ccc(C)cc1-c1ccc(COc2ccc3c(c2)CCCC3CC(=O)O)cc1 (racemic) [Example 1, (R/S)-[6-(2′-Butoxy-5′-methyl-biphenyl-4-ylmethoxy)-1,2,3,4-tetrahydro-naphthalen-1-yl]-acetic acid]	0.1 to 1
CCCCOc1ccc(C)cc1-c1ccc(COc2ccc3c(c2)CCC3CC(=O)O)cc1 (racemic) [Example 11, (R/S)-[5-(2′-Butoxy-5′-methyl-biphenyl-4-ylmethoxy)-indan-1-yl]-acetic acid]	0.1 to 1
CCCCOc1ccc(C)cc1-c1ccc(COc2ccc3c(c2)CCC(C(=O)O)C3)cc1 (racemic) [Example 29, (R/S)-6-(2′-Butoxy-5′-methyl-biphenyl-4-ylmethoxy)-1,2,3,4-tetrahydro-naphthalene-2-carboxylic acid]	0.1 to 1
C=C1COc2cc(OCc3ccc(-c4cc(C)ccc4OCCCC)cc3)ccc2C1CC(=O)O (racemic) [Example 35]	0.1 to 1
CCCCOc1ccc(C)cc1-c1ccc(COc2ccc3c(c2)OCC(=C(C)C)C3CC(=O)O)cc1 (racemic) [Example 39]	0.1 to 1
CCCCOc1ccc(C)cc1-c1ccc(COc2ccc3c(c2)OCC(C)C3CC(=O)O)cc1 (racemic) [Example 40]	0.1 to 1
C=C1CCOc2cc(OCc3ccccc3)ccc2C1CC(=O)O (racemic) [Example 43, (R/S)-2-(8-(benzyloxy)-4-methylene-2,3,4,5-tetrahydrobenzo[b]oxepin-5-yl)acetic acid]	0.1 to 1
C=C(c1ccc(-c2ccccc2)cc1)c1ccc2c(c1)CCCC2CC(=O)O (racemic) [Example 44, (R/S)-[6-(1-Biphenyl-4-yl-vinyl)-1,2,3,4-tetrahydro-naphthalen-1-yl]-acetic acid]	1 to 10
C=C(c1ccc(Oc2ccccc2)cc1)c1ccc2c(c1)CCCC2CC(=O)O (racemic) [Example 45, (R/S)-{6-[1-(4-Phenoxy-phenyl)-vinyl]-1,2,3,4-tetrahydro-naphthalen-1-yl}-acetic acid]	1 to 10
Cc1cc(Cl)ccc1-c1cccc(COc2ccc3c(c2)C(=O)NC3CC(=O)O)c1 (racemic) [Example 66, (R/S)-(5-(((4′-chloro-2′-methyl-1,1′-biphenyl-3-yl)methyl)oxy)-3-oxo-2,3-dihydro-1H-isoindol-1-yl)acetic acid]	1 to 10
Cc1cc(Cl)ccc1-c1cccc(COc2ccc3c(c2)C(=O)N(C)C3CC(=O)O)c1 (racemic) [Example 67, (R/S)-(5-(((4′-chloro-2′-methyl-1,1′-biphenyl-3-yl)methyl)oxy)-2-methyl-3-oxo-2,3-dihydro-1H-isoindol-1-yl)acetic acid]	0.1 to 1
Cc1c(Cl)cccc1-c1cccc(COc2ccc3c(c2)C(=O)NC3CC(=O)O)c1 (racemic) [Example 68]	1 to 10

From patent US20070244155A1 (AMGEN INC., priority 2006, published 2007)
